Columns and labels:
[1] = target: T1, G9a (Homo sapiens, UniProt Q96KQ7); assay: G9a Homogeneous Assay Kit (AlphaLISA) G9a inhibition; format: biochemical; conditions: for IC50: AlphaLISA, 100 μM SAM and peptide substrate
T1 construct: purchased BPS Bioscience 52051
T1 sequence (Q96KQ7 1-1210): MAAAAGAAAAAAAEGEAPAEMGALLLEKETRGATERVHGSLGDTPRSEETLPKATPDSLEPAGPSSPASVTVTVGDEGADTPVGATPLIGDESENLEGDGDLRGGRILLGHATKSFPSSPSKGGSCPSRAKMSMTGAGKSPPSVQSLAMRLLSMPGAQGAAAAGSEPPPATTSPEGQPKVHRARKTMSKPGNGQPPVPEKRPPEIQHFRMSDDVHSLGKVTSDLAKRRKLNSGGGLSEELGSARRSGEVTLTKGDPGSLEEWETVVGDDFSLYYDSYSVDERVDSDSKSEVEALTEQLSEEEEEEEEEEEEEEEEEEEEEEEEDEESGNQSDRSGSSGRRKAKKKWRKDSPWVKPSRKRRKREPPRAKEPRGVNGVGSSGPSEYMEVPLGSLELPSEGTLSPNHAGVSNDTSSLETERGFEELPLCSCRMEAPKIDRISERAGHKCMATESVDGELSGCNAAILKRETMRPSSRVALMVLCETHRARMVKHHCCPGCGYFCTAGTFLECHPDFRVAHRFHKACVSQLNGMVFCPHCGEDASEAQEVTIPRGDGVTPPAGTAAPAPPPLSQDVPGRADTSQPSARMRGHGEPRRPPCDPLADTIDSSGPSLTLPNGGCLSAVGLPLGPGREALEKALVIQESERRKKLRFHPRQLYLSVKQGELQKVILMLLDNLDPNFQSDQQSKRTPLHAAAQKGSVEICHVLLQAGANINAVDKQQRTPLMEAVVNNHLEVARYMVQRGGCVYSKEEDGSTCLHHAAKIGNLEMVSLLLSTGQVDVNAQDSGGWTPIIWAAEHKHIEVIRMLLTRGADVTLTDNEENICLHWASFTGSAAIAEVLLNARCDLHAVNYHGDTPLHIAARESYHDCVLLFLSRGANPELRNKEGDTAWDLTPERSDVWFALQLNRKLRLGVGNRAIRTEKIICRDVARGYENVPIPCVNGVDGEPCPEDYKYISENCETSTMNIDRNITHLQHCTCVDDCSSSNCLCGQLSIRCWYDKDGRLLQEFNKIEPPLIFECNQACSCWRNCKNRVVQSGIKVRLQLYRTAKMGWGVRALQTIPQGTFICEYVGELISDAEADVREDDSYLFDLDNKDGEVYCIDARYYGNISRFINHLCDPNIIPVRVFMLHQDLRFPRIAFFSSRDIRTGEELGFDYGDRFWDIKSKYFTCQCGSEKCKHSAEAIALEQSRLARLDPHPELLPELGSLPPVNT
Procedure: The percentages of G9a activity for the 10 selected molecules were determined at 100 μM S‐adenosylmethionine (SAM) and peptide substrate using AlphaLISA® technology. These percentages were used to calculate the IC50.
G9a inhibitors were serially diluted between 5 nM and 0.001 nM in 100 % DMSO (Sigma, St. Louis, USA). Then, respective concentrations were subsequently diluted in MilliQ purified water to reach a final concentration ranging between 50 and 0.001 μM in 1 % DMSO in well.
Briefly, a sample containing the G9a enzyme is incubated with the biotinylated substrate plus inhibitor solution for two hours. Next, acceptor beads and primary antibody is added, followed by donor beads. Finally, the Alpha‐counts were read using an AlphaScreen microplate reader. The experiment was run per triplicate. G9aactivity(%)=(C-Cb)/(Ct-Cb)x100
Ct=The chemiluminescence reading in the absence of the compound. The data set here is defined as 100 % activity in the absence of the compound.
Cb=The chemiluminescence reading in absence of enzyme. The data set here is defined as 0 % activity in the absence of the enzyme.
C=The chemiluminescence reading in the presence of the compound.
Data analysis was conducted using GraphPad Prism ver. 9 statistical software. The statistical outliers were identified with Grubb's test and excluded from the analysis. Group comparisons were carried out with a One‐way Analysis of variance (ANOVA), followed by the Dunnett post hoc test. In some cases, comparison between groups was also performed by unpaired t‐test or One‐way ANOVA, followed by Fisher's LSD post hoc test. For the calculation of IC50, non‐linear regressions were performed. […] Values are shown as the mean ± Standard error of the mean (SEM) of at least n=3. Statistical significance was considered when p values were <0.05.

[2] = test system: C. elegans strain CL2006; assay: Locomotion assay (motor index); format: in vivo, Caenorhabditis elegans; conditions: CL2006 worms, 0.001-1 μM, chronic treatment, compared with UNC0638
Procedure: One of the best‐characterized transgenic AD strains in C. elegans is the CL2006 strain, which contains the Punc‐54::Aβ1–42 transgene, showing a progressive adult‐onset paralysis. Then, to establish a dose‐response profile, the pharmacological impact of G9a inhibition was evaluated in a locomotion assay with this C. elegans strain. We performed a motility assay where animals were placed in the center of a seeded plate and allowed to explore the environment freely. […] N2 (WT), and CL2006 strain were treated with dimethyl sulfoxide (DMSO) 1 %, used as a vehicle, which should not cause a relevant locomotor defective phenotype. […] The motor index for each condition was calculated using the motor performance of Bristol (N2) (WT, 100 %) and the transgenic AD strain (CL2006, 0 %) animals as reference.
Locomotion assay of G9a inhibitors was assessed to obtain dose‐response profile, evaluating the impact of the pharmacology treatment in motor dysfunction presented by the transgenic strains CL2006. Nematodes were synchronized by alkaline hypochlorite treatment, and drug assay was performed as described above, except for the OP50 bacteria OD595 adjusted to 0.9, and the duration of the treatment was 5 days. N2 (WT), and the transgenic strain CL2006 were treated in liquid media for 4 days at 20 °C and 180 rpm, starting at the L1 stage. On day 5 of age, worms were transferred from the 96‐well plates onto an unseeded NGM plate for 45 minutes before starting the trial, allowing the plates to dry and worms. Locomotion assays were performed in 30 mm NGM plates, in which the whole surface of the plate was covered by OP50. 5 to 10 adult nematodes were placed in the center of a circle (with 1 cm of diameter) in the seeded 30 mm NGM plates. After 1 min, the number of animals remaining inside the circle was scored as a locomotor defect. Motor behavior assays were run in triplicates (n=3), with a total of at least 100 animals tested per compound concentration. Motor index establishes a score where treated animals showing the same motor defect as CL2006 have an index of 0 %. […] All the results shown in the figures are calculated using the following formula: Motorindex(%)=(LDCL2006vehicle-LDCL2006drug)/(LDCL2006vehicle-LDWTvehicle)×100 LD=locomotiondefective

[3] = PAMPA‐BBB assay; format: in vitro ADME; conditions: pig; PAMPA‐BBB, PBS:EtOH (70 : 30); read-out: Permeability (Pe) experimental value
Procedure: To evaluate the brain penetration of the different compounds, a parallel artificial membrane permeation assay for BBB was used, following the method described by Di et al..[33] The in vitro Pe of fourteen commercial drugs through lipid extract of porcine brain membrane together with the test compounds were determined. Commercial drugs and assayed compounds were tested using a mixture of PBS:EtOH (70 : 30).

Structure (SMILES) | remaining activity at 0.0001 µM ([1]; first data set of Table S2) [%] | remaining activity at 0.0001 µM ([1]; second data set of Table S2) [%] | remaining activity at 0.0001 µM ([1]; third data set of Table S2) [%] | remaining activity at 0.001 µM ([1]; first data set of Table S2) [%] | remaining activity at 0.001 µM ([1]; second data set of Table S2) [%] | remaining activity at 0.001 µM ([1]; third data set of Table S2) [%] | remaining activity at 0.01 µM ([1]; first data set of Table S2) [%] | remaining activity at 0.01 µM ([1]; second data set of Table S2) [%] | remaining activity at 0.01 µM ([1]; third data set of Table S2) [%] | remaining activity at 0.1 µM ([1]; first data set of Table S2) [%] | remaining activity at 0.1 µM ([1]; second data set of Table S2) [%] | remaining activity at 0.1 µM ([1]; third data set of Table S2) [%] | remaining activity at 1 µM ([1]; first data set of Table S2) [%] | remaining activity at 1 µM ([1]; second data set of Table S2) [%] | remaining activity at 1 µM ([1]; third data set of Table S2) [%] | remaining activity at 10 µM ([1]; first data set of Table S2) [%] | remaining activity at 10 µM ([1]; second data set of Table S2) [%] | remaining activity at 10 µM ([1]; third data set of Table S2) [%] | remaining activity at 50 µM ([1]; first data set of Table S2) [%] | remaining activity at 50 µM ([1]; second data set of Table S2) [%] | other results
CC(C)c1nccn1CCCNCc1cc(CN2CCCC2)cs1 [C] | 32.8 | 32.7 | 32.8 | 22.2 | 23.9 | 23.1 | 15.1 | 19.5 | 17.3 | 12 | 12.6 | 12.3 | 11.5 | 12.4 | 12 | 10.9 | 11.3 | 11.1 | 10.7 | 10.9 | remaining activity at 50 µM ([1]; third data set of Table S2): 10.8%; IC50 [1]: 1.7 nM; motor index dose‐response profile (in words) [2]: ameliorating the paralysis presented by CL2006
CN1C(C(=O)Nc2ccccn2)=C(O)c2ccccc2S1(=O)=O [Piroxicam, reference compound] |  |  |  |  |  |  |  |  |  |  |  |  |  |  |  |  |  |  |  |  | Papp [3]: 2 ± 0.08 ×10⁻⁶ cm/s
c1ccc(OCCn2ccnc2)c(CN2CCN(c3ccncc3)CC2)c1 [Compound B] | 9.3 | 10.8 | 10 | 8.7 | 11.6 | 10.1 | 3.5 | 7.3 | 5.4 | 2.1 | 5.3 | 3.7 | 1.2 | 3.8 | 2.5 | 0.9 | 1.6 | 1.2 | 0.2 | 0.6 | remaining activity at 50 µM ([1]; third data set of Table S2): 0.4%; IC50 [1]: 9.4 nM; motor index dose‐response profile (in words) [2]: did not show an improved performance against the motor indexes of the control UNC0638
CC(C)c1nccn1C(C)C(=O)Nc1ccc(NC(=O)CN2CCCCC2)cc1 (centres unmarked) [I] | 30.9 | 29.3 | 30.1 | 24 | 22.5 | 23.2 | 13.5 | 12.8 | 13.2 | 8.2 | 9.3 | 8.7 | 6.8 | 7.3 | 7.1 | 6.6 | 5.7 | 6.2 | 5.9 | 4.8 | remaining activity at 50 µM ([1]; third data set of Table S2): 5.3%; IC50 [1]: 3.9 nM; motor index dose‐response profile (in words) [2]: lowest motor index in the maximum and minimum dose tested
CCc1nccn1CCC(=O)Nc1cccc(NC(=O)CN(C)C)c1 [G] | 29.6 | 33.7 | 31.7 | 26 | 28.7 | 27.4 | 17.6 | 16.1 | 16.8 | 11.4 | 12.3 | 11.9 | 8.7 | 10.3 | 9.5 | 8.5 | 9.1 | 8.8 | 7.7 | 9.1 | remaining activity at 50 µM ([1]; third data set of Table S2): 8.4%; IC50 [1]: 5.8 nM; motor index dose‐response profile (in words) [2]: motor index decreased progressively as the dose decreased
CC(=O)[C@H]1CC[C@H]2[C@@H]3CCC4=CC(=O)CC[C@]4(C)[C@H]3CC[C@]12C [Progesterone, reference compound] |  |  |  |  |  |  |  |  |  |  |  |  |  |  |  |  |  |  |  |  | Papp [3]: 14.7 ± 0.3 ×10⁻⁶ cm/s

More lines, main results first:

remaining activity at 0.0001 µM ([1]; first data set of Table S2) [%] | remaining activity at 0.0001 µM ([1]; second data set of Table S2) [%] | remaining activity at 0.0001 µM ([1]; third data set of Table S2) [%] | remaining activity at 0.001 µM ([1]; first data set of Table S2) [%] | remaining activity at 0.001 µM ([1]; second data set of Table S2) [%] | remaining activity at 0.001 µM ([1]; third data set of Table S2) [%] | remaining activity at 0.01 µM ([1]; first data set of Table S2) [%] | remaining activity at 0.01 µM ([1]; second data set of Table S2) [%] | remaining activity at 0.01 µM ([1]; third data set of Table S2) [%] | remaining activity at 0.1 µM ([1]; first data set of Table S2) [%] | remaining activity at 0.1 µM ([1]; second data set of Table S2) [%] | remaining activity at 0.1 µM ([1]; third data set of Table S2) [%] | remaining activity at 1 µM ([1]; first data set of Table S2) [%] | remaining activity at 1 µM ([1]; second data set of Table S2) [%] | remaining activity at 1 µM ([1]; third data set of Table S2) [%] | remaining activity at 10 µM ([1]; first data set of Table S2) [%] | remaining activity at 10 µM ([1]; second data set of Table S2) [%] | remaining activity at 10 µM ([1]; third data set of Table S2) [%] | remaining activity at 50 µM ([1]; first data set of Table S2) [%] | remaining activity at 50 µM ([1]; second data set of Table S2) [%] | Structure (SMILES) | other results
33 | 33.8 | 33.4 | 29.3 | 28.4 | 28.8 | 23 | 21.5 | 22.2 | 15.8 | 15.9 | 15.9 | 11.5 | 14.2 | 12.8 | 8.3 | 10.3 | 9.3 | 9.9 | 12.1 | Fc1ccccc1CN1CCC(CN(Cc2ccccn2)CC2CCCO2)CC1 (centres unmarked) [Compound D] | remaining activity at 50 µM ([1]; third data set of Table S2): 11%; IC50 [1]: 10.5 nM
31 | 32.1 | 31.6 | 27.8 | 30.6 | 29.2 | 22.9 | 30.7 | 26.8 | 22.8 | 22.7 | 22.7 | 14.8 | 15.1 | 15 | 10 | 11.3 | 10.6 | -0.4 | 0.9 | Cn1ccnc1-c1ccc(NCC(c2cccnc2)N2CCOCC2)nn1 (centres unmarked) [A] | remaining activity at 50 µM ([1]; third data set of Table S2): 0.3%

Source: publication PMC9401600 (Chemmedchem, 2022)
